Source: patent US10351546B2, “Pyridin-3-yl acetic acid derivatives as inhibitors of human immunodeficiency virus replication” (priority 2015, dated 2019)

The molecules below were run on NL-RLuc virus (assay: Inhibition of HIV replication (NL-RLuc luciferase reporter virus in MT-2 cells)). Conditions: Human immunodeficiency virus 1, MT2, 120 h, read-out: Activity.
Assay type: cell-based
Outline: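 MT-2 cells were infected with NL4-3-derived virus carrying Renilla luciferase in place of part of nef, in RPMI/10% FBS, with serial compound dilutions. Luciferase read after 5 days of multicycle replication. EC50 from the median effect equation, at least 2 experiments.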

SMILES | EC50
CCOCc1nc(C)c([C@H](OC(C)(C)C)C(=O)O)c(N2CCC(C)(C)CC2)c1-c1ccc2c(c1)CCN(Cc1ccc(F)cc1C)C2 [Example 156, (S)-2-(tert-Butoxy)-2-(4-(4,4-dimethylpiperidin-1-yl)-6-(ethoxymethyl)-5-(2-(4-fluoro-2-methylbenzyl)-1,2,3,4-tetrahydroisoquinolin-6-yl)-2-methylpyridin-3-yl)acetic acid] | < 0.1 µM
Cc1nc(Cn2cnnc2C)c(-c2ccc(OCCc3ccc(F)cc3)cc2)c(N2CCC(C)(C)CC2)c1[C@H](OC(C)(C)C)C(=O)O [Example 33, (S)-2-(tert-butoxy)-2-(4-(4,4-dimethylpiperidin-1-yl)-5-(4-(4-fluorophenethoxy)phenyl)-2-methyl-6-((3-methyl-4H-1,2,4-triazol-4-yl)methyl)pyridin-3-yl)acetic acid] | < 0.1 µM
Cc1nc(CN2[C@@H]3CC[C@H]2CN(C)C3)c(-c2ccc(OCCc3ccc(F)cc3)cc2)c(N2CCC(C)(C)CC2)c1[C@H](OC(C)(C)C)C(=O)O [Example 96, (S)-2-(tert-butoxy)-2-(4-(4,4-dimethylpiperidin-1-yl)-5-(4-(4-fluorophenethoxy)phenyl)-2-methyl-6-(((1R,5S)-3-methyl-3,8-diazabicyclo[3.2.1]octan-8-yl)methyl)pyridin-3-yl)acetic acid] | < 0.1 µM
Cc1cccc(Cl)c1CN1CCc2cc(-c3c(CN4CCCC4)nc(C)c([C@H](OC(C)(C)C)C(=O)O)c3N3CCC(C)(C)CC3)ccc2C1 [Example 176, (S)-2-(tert-Butoxy)-2-(5-(2-(2-chloro-6-methylbenzyl)-1,2,3,4-tetrahydroisoquinolin-6-yl)-4-(4,4-dimethylpiperidin-1-yl)-2-methyl-6-(pyrrolidin-1-ylmethyl)pyridin-3-yl)acetic acid] | < 0.1 µM
Cc1nc(COCc2ncco2)c(-c2ccc(OCCc3ccc(F)cc3)cc2)c(N2CCC(C)(C)CC2)c1[C@H](OC(C)(C)C)C(=O)O [Example 14, (S)-2-(tert-Butoxy)-2-(4-(4,4-dimethylpiperidin-1-yl)-5-(4-(4-fluorophenethoxy)phenyl)-2-methyl-6-((oxazol-2-ylmethoxy)methyl)pyridin-3-yl)acetic acid] | < 0.1 µM
Cc1nc(C(=O)N(C)CC2CCOCC2)c(-c2ccc(OCCc3ccc(F)cc3)cc2)c(N2CCC(C)(C)CC2)c1[C@H](OC(C)(C)C)C(=O)O [Example 41, (S)-2-(tert-Butoxy)-2-(4-(4,4-dimethylpiperidin-1-yl)-5-(4-(4-fluorophenethoxy)phenyl)-2-methyl-6-(methyl((tetrahydro-2H-pyran-4-yl)methyl)carbamoyl)pyridin-3-yl)acetic acid] | < 0.1 µM
Cc1cccc(Cl)c1CN1CCc2cc(-c3c(CN4CCC4)nc(C)c([C@H](OC(C)(C)C)C(=O)O)c3N3CCC(C)(C)CC3)ccc2C1 [Example 175, (S)-2-(6-(Azetidin-1-ylmethyl)-5-(2-(2-chloro-6-methylbenzyl)-1,2,3,4-tetrahydroisoquinolin-6-yl)-4-(4,4-dimethylpiperidin-1-yl)-2-methylpyridin-3-yl)-2-(tert-butoxy)acetic acid] | < 0.1 µM
Cc1cc(F)ccc1CN1CCc2cc(-c3c(CO)nc(C)c([C@H](OC(C)(C)C)C(=O)O)c3N3CCC(C)(C)CC3)ccc2C1 [Example 113, (S)-2-(tert-Butoxy)-2-(4-(4,4-dimethylpiperidin-1-yl)-5-(2-(4-fluoro-2-methylbenzyl)-1,2,3,4-tetrahydroisoquinolin-6-yl)-6-(hydroxymethyl)-2-methylpyridin-3-yl)acetic acid] | < 0.1 µM
Cc1nc(CN2C3CC2CN(Cc2ccccc2)C3)c(-c2ccc(OCCc3ccc(F)cc3)cc2)c(N2CCC(C)(C)CC2)c1[C@H](OC(C)(C)C)C(=O)O [Example 98, (2S)-2-(6-((3-Benzyl-3,6-diazabicyclo[3.1.1]heptan-6-yl)methyl)-4-(4,4-dimethylpiperidin-1-yl)-5-(4-(4-fluorophenethoxy)phenyl)-2-methylpyridin-3-yl)-2-(tert-butoxy)acetic acid] | < 0.1 µM
Cc1nc(COC2CCOCC2)c(-c2ccc(OCCc3ccc(F)cc3)cc2)c(N2CCC(C)(C)CC2)c1[C@H](OC(C)(C)C)C(=O)O [Example 12, (S)-2-(tert-Butoxy)-2-(4-(4,4-dimethylpiperidin-1-yl)-5-(4-(4-fluorophenethoxy)phenyl)-2-methyl-6-(((tetrahydro-2H-pyran-4-yl)oxy)methyl)pyridin-3-yl)acetic acid] | < 0.1 µM
CCOCCOCc1nc(C)c([C@H](OC(C)(C)C)C(=O)O)c(N2CCC(C)(C)CC2)c1-c1ccccc1 [Example 34, (S)-2-(tert-Butoxy)-2-(4-(4,4-dimethylpiperidin-1-yl)-6-((2-ethoxyethoxy)methyl)-2-methyl-5-phenylpyridin-3-yl)acetic acid] | < 0.1 µM
Cc1cccc(Cl)c1CN1CCc2cc(-c3c(CN4CCC5(CCC5)CC4)nc(C)c([C@H](OC(C)(C)C)C(=O)O)c3N3CCC(C)(C)CC3)ccc2C1 [Example 180, (S)-2-(6-((7-Azaspiro[3.5]nonan-7-yl)methyl)-5-(2-(2-chloro-6-methylbenzyl)-1,2,3,4-tetrahydroisoquinolin-6-yl)-4-(4,4-dimethylpiperidin-1-yl)-2-methylpyridin-3-yl)-2-(tert-butoxy)acetic acid] | < 0.1 µM
COc1nc(C)c([C@H](OC(C)(C)C)C(=O)O)c(N2CCC(C)(C)CC2)c1-c1ccc(OCCc2ccc(F)cc2)cc1 (single isomer, unassigned) [Example 51] | < 0.1 µM
Cc1cc(F)ccc1CN1CCc2cc(-c3c(CN4CCOCC4)nc(C)c([C@H](OC(C)(C)C)C(=O)O)c3N3CCC(C)(C)CC3)ccc2C1 [Example 121, (S)-2-(tert-Butoxy)-2-(4-(4,4-dimethylpiperidin-1-yl)-5-(2-(4-fluoro-2-methylbenzyl)-1,2,3,4-tetrahydroisoquinolin-6-yl)-2-methyl-6-(morpholinomethyl)pyridin-3-yl)acetic acid] | < 0.1 µM
Cc1nc(CNc2ccccc2)c(-c2ccc(OCCc3ccc(F)cc3)cc2)c(N2CCC(C)(C)CC2)c1[C@H](OC(C)(C)C)C(=O)O [Example 73, (S)-2-(tert-Butoxy)-2-(4-(4,4-dimethylpiperidin-1-yl)-5-(4-(4-fluorophenethoxy)phenyl)-2-methyl-6-((phenylamino)methyl)pyridin-3-yl)acetic acid] | < 0.1 µM
Cc1nc(CO)c(-c2ccc3c(c2)CCN(c2ncnc4c2oc2ccccc24)C3)c(N2CCC(C)(C)CC2)c1[C@H](OC(C)(C)C)C(=O)O [Example 168, (S)-2-(5-(2-(Benzofuro[3,2-d]pyrimidin-4-yl)-1,2,3,4-tetrahydroisoquinolin-6-yl)-4-(4,4-dimethylpiperidin-1-yl)-6-(hydroxymethyl)-2-methylpyridin-3-yl)-2-(tert-butoxy)acetic acid] | < 0.1 µM
Cc1cccc(Cl)c1CN1CCc2cc(-c3c(CN4CCC5(CC4)CC5)nc(C)c([C@H](OC(C)(C)C)C(=O)O)c3N3CCC(C)(C)CC3)ccc2C1 [Example 178, (S)-2-(6-((6-Azaspiro[2.5]octan-6-yl)methyl)-5-(2-(2-chloro-6-methylbenzyl)-1,2,3,4-tetrahydroisoquinolin-6-yl)-4-(4,4-dimethylpiperidin-1-yl)-2-methylpyridin-3-yl)-2-(tert-butoxy)acetic acid] | < 0.1 µM

Same assay, conditions: Human immunodeficiency virus 1, MT2, 120 h, read-out: EC50 μM

SMILES | EC50
Cc1nc(CO)c(-c2ccc3c(c2)CCN(c2ncnc4c2oc2ccccc24)C3)c(N2CCC(C)(C)CC2)c1[C@H](OC(C)(C)C)C(=O)O [Example 168, (S)-2-(5-(2-(Benzofuro[3,2-d]pyrimidin-4-yl)-1,2,3,4-tetrahydroisoquinolin-6-yl)-4-(4,4-dimethylpiperidin-1-yl)-6-(hydroxymethyl)-2-methylpyridin-3-yl)-2-(tert-butoxy)acetic acid] | 0.001 µM
